Measured values: patent US20250302773A1, “CO[…] AND N-ACYLETH[…] USES THEREOF” (CLEARMIND MEDICINE INC., priority 2022, published 2025)

What was measured:
C57BL/6 mice [1] = assay: Intermittent access to 20% Alcohol in two-bottle choice (IA2BC) model: alcohol consumption; format: in vivo
Experimental: The principle of the study is based on Intermittent access to 20% Alcohol in two-bottle choice (IA2BC) model in mice. The mice were provided during the whole Study with two bottles: one bottle of water, and another bottle of 20% ethanol solution, which were removed and replaced after 24 hours with another buttle of water, for additional 24 hours. In total, the mice were subjected to 20% ethanol 24 hours, three times a week, for seven-eight weeks (21-22 alcohol consumption days).
The alcohol consumption was measured after each 24 of alcohol exposure (by weighing the alcohol buttle before and after). Following four weeks of intermittent access to 20% alcohol the mice were allocated to groups according to their alcohol consumption, to achieve balanced groups. To examine the effect of treatment in reducing alcohol consumption, mice were treated with the Test Item/s or Vehicle daily during weeks 6-7/8. […]
Animal alcohol and water consumption was recorded for each cage and was done for a 24±2 hours period starting at Day 1, three times a week thereafter until the end of the Study.
Intermittent access to 20% Alcohol in two-bottle choice (IA2BC) model in mice. The mice were subjected to 20% ethanol 24 hours, three times a week, for five weeks (15 alcohol consumption days), and the alcohol consumption was measured by weight. […]

[2] = Body weight in the IA2BC study; format: in vivo, mice; conditions: group 4F (MEAI mid dose, 60 mg/kg), only during Day 40 of cycle 1; *p<0.05
Experimental: Body weight was recorded upon arrival, before study initiation, three times a week thereafter and at termination.
Body weight (BW) was monitored every other day in all animals of all groups.

C57BL/6 mice [3] = assay: Mortality and gross pathology in the IA2BC study; format: in vivo
Experimental: Morbidity and mortality checks were performed daily. Animals that were sacrificed during the study were considered for the interpretation of study results as animals that died during the study. In case of mortality before the study's scheduled termination, gross pathology evaluation was performed as close as possible to the time of death. The time of death was recorded as precisely as possible.
Observations documented any irregularities, such as changes in local injection site, skin, fur, eyes, mucous membranes, respiratory, occurrence of secretions and excretions (e.g. diarrhea) and autonomic activity (e.g. lacrimation, salivation, piloerection, pupil size, unusual respiratory pattern). Changes in gait, posture, and response to handling, as the presence of bizarre behavior, tremors, convulsions, sleep, and coma were also included. All observed abnormalities, toxic signs, moribund condition, and pre-terminal deaths were recorded.
The animals were evaluated for macroscopic findings during gross pathology.

C57BL/6 mice [4] = assay: Alcohol preference (alcohol / total fluids) in the IA2BC study; format: in vivo
Experimental: The mean alcohol preference, which was defined as the ratio between alcohol weight (g/kg/24 h) divided by the total weight of water and alcohol consumed by the animals (g/kg/24 h) was evaluated.

C57BL/6 mice [5] = assay: Food consumption in the IA2BC study; format: in vivo; conditions: cycle 2, Group 7F, MEAI/PEA 0/25 mg/kg
Experimental: Animal food consumption was performed twice before first dosing (during alcohol addition, and without alcohol addition), during dosing period at each alcohol addition (six times in total) and before termination (without alcohol addition).
The Food consumption was recorded in each cage for a […] period. Determinations of food consumption (calculated value) were based on a provided diet placed in hoppers and the remaining unused diet weighed.
Food consumption was monitored per each mouse in each individual cage for 24 h during Alcohol addition time, by measuring the weight of food before and after 24 hours. The consumption of food was measured during all MEAI treatment days, in both cycles. The mean value for each group during each consumption day was calculated as fold change from baseline (i.e. food consumption measured before MEAI treatment), per each animal. The fold change values of each MEAI/PEA treated group was compared to the vehicle groups (1F/6F/7F) and statistical analysis was performed.

Row | Structure (SMILES) | reducing alcohol consumption of the treated animals (C57BL/6 mice [1]; MEAI 20-100 mg/kg PO daily, weeks 6-7/8, treated vs control) | alcohol consumption during treatment compared to consumption before treatment (C57BL/6 mice [1]; cycle 1, MEAI at a dose of 40 mg/kg and at higher doses PO, mean of six alcohol days, ** p<0.01, *** p<0.001) | body weight compared to control group [2] | mortality (C57BL/6 mice [3]; high doses treated groups, after prolonged alcohol consumption) | gross pathology findings in liver, kidneys, heart and spleen (bright color and/or enlarged) (C57BL/6 mice [3]; observed in all groups including vehicle treated) | reduction of alcohol preference compared to control, significance (C57BL/6 mice [4]; cycle 1, 100 mg/kg MEAI) | mean alcohol preference compared to control groups (C57BL/6 mice [4]; cycle 1, MEAI 20-100 mg/kg) | reduction of food consumption compared to own baseline (C57BL/6 mice [5]) [%]
1 | COc1ccc2c(c1)CC(N)C2 (centres unmarked) [MEAI, 5-methoxy-2-aminoindan] | significant dose dependent effect | significantly reduced | significantly lower | four | most likely related to the alcohol consumption and not to the MEAI treatment | statistically significant | reduced in a dose dependent manner | –
2 | CCCCCCCCCCCCCCCC(=O)NCCO [PEA, N-(2-hydroxyethyl) hexadecanamide] | – | – | – | – | – | – | – | 22
